Source: patent US20250257064A1, “TRIFLUOROMETHYL-SUBSTITUTED SULFONAMIDE AS BCL-2-SELECTIVE INHIBITOR” (Chia Tai Tianqing Pharmaceutical Group Co., Ltd., priority 2018, published 2025)

Assays:
BCL-2/BAK = biological target: T1, BCL-2/BAK (Homo sapiens, UniProt P10415); experiment: Screening on inhibitory activity for BCL-2/BAK binding (Cisbio HTRF kit)
T1 construct: purchased Cisbio
Protocol: 1.1 Screening on Inhibitory Activity for BCL-2/BAK Binding
500 nM Tag1-BCL-2 protein stock solution and 20 μM Tag2-BAK protein stock solution were diluted to 5 nM and 120 nM respectively with dilution buffer in kit (model: BCL-2/BAK (BH3) BINDING ASSAY KITS, from Cisbio). 5 μL of Tag1-BCL-2 protein diluent was added to each well, then different compounds dissolved with DMSO were added to the wells with a nanoliter pipettor, allowing the final compound concentrations to be 200 nM to 0.0488 nM (4-fold gradient for 7 concentrations in total). Blank control wells (without enzyme) and negative control wells (with enzyme, plus vehicle DMSO) were set, and 2 replicate wells were set. Finally, 5 μL of Tag2-BAK protein diluent was added to each well, and the mixture was mixed well by centrifugation and incubated at 25° C. for 15 min. 100× anti-Tag1-Eu^3+ and 100× anti-Tag2-XL665 were both diluted to 1× working concentration with the detection buffer in the kit. Anti-Tag1-Eu^3+ and anti-Tag2-XL665 were mixed well in a 1:1 ratio, and the mixture was added to wells at 5 μL/well, and incubated at 25° C. for 2 h or more. The plate was read using a PE Envision multi-functional microplate reader (excitation: […], emission: 665 nm) and IC50 (shown in table 1) was calculated by four-parameter fitting.

BCL-XL/BAK = biological target: T2, BCL-XL/BAK (Homo sapiens, UniProt Q07817); experiment: Screening on inhibitory activity for BCL-XL/BAK binding (Cisbio HTRF kit)
T2 construct: purchased Cisbio
Protocol: 1.2 Screening on Inhibitory Activity for BCL-XL/BAK Binding
300 nM Tag1-BCL-XL protein stock solution and 10 μM Tag2-BAK protein stock solution were diluted to 2 nM and 80 nM respectively with dilution buffer in kit (model: BCL-XL/BAK (BH3) BINDING ASSAY KITS, from Cisbio). 5 μL of Tag1-BCL-XL protein diluent was added to each well, then different compounds dissolved with DMSO were added to the wells with a nanoliter pipettor, allowing the final compound concentrations to be 2000 nM to 0.488 nM (4-fold gradient for 7 concentrations in total). Blank control wells (without enzyme) and negative control wells (with enzyme, plus vehicle DMSO) were set, and 2 replicate wells were set. Finally, 5 μL of Tag2-BAK protein diluent was added to each well, and the mixture was mixed well by centrifugation and incubated at 25° C. for 15 min. 100× anti-Tag1-Eu^3+ and 100× anti-Tag2-XL665 were both diluted to 1× working concentration with the detection buffer in the kit. Anti-Tag1-Eu^3+ and anti-Tag2-XL665 were mixed well in a 1:1 ratio, and the mixture was added to wells at 5 µL/well, and incubated at 25° C. for 2 h or more. The plate was read using a PE Envision multi-functional microplate reader (excitation: […], emission: 665 nm) and IC50 (shown in table 1) was calculated by four-parameter fitting.

RS4;11 cells = experiment: Inhibitory effect on proliferation of RS4;11 cells (CCK-8); format: cell-based, human; conditions: Homo sapiens, RS4-11, 72 h
Protocol: Experimental Example 2: Inhibitory Effect of Compounds on Proliferation of RS4;11 Cells
RS4;11 cells (from Nanjing Cobioer) in logarithmic growth phase and good cell condition were added to a centrifuge tube and centrifuged at 1500 rpm for 3 min in a low speed centrifuge. The supernatant was discarded, and 5 mL of complete medium (RPMI basic medium+10 wt % fetal bovine serum (FBS)) was added using a pipette for cell resuspension. The cells were counted using a cell counter, diluted with complete medium to a cell density of 2×10^5 cells/mL, and added with an equivalent amount of RPMI basic medium to adjust the serum concentration to 5% and the cell density to 1×10^5 cells/mL for plate seeding. The cells were seeded on a 96-well plate at 100 μL/well using a pipettor, and incubated in an incubator at 37° C., 5% CO2 with saturated humidity. After 24 h of incubation, compounds were loaded using a nanoliter pipettor, 2 duplicate wells were set for each concentration, and cells without compound were used as negative controls. […] Inhibition rate (%)=(mean value of negative control group—mean value of experimental group)/(mean value of negative control group—mean value of blank group)×100%. A dose-response curve was fitted by four-parameter analysis, with the logarithm of compound concentration serving as abscissa and inhibition rate serving as ordinate, so that IC50 was calculated (FIG. 2).

T1 sequence (P10415 whole entry, species assumed): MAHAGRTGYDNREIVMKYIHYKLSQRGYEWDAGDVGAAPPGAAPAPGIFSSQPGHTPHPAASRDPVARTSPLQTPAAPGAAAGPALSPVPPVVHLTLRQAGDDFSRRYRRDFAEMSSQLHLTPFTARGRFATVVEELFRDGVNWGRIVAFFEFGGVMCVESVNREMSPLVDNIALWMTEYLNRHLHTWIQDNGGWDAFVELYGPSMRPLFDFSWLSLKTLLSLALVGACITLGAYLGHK
T2 sequence (Q07817 whole entry, species assumed): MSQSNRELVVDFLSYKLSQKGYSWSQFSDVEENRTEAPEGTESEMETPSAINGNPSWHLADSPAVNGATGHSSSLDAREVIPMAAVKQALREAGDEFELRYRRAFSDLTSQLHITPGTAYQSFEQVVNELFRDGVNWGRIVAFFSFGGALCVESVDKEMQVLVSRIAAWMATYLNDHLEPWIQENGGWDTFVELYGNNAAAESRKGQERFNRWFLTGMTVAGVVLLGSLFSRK

| IC50 (BCL-2/BAK) [nM] | IC50 (BCL-XL/BAK) [nM] | IC50 (RS4;11 cells) [nM] | Compound |
| --- | --- | --- | --- |
| 0.86 | > 2000 | – | CC1(C)CCC(CN2CCN(c3ccc(C(=O)NS(=O)(=O)c4ccc(NCC5CCOCC5)c([N+](=O)[O-])c4)c(Oc4cnc5[nH]ccc5c4)c3)CC2)=C(c2ccc(Cl)cc2C(F)(F)F)C1 [Compound 3-1, 4-(4-{[2-(4-chloro-2-trifluoromethylphenyl)-4,4-dimethylcyclohex-1-enyl]methyl}-piperazin-1-yl)-N-({3-nitro-4-[(tetrahydro-2H-pyran-4-ylmethyl)amino]phenyl}sulfonyl)-2-(1H-pyrrolo[2,3-b]pyridin-5-yloxy)-benzamide] |
| 0.8 | > 2000 | – | CC1(C)CCC(CN2CCN(c3ccc(C(=O)NS(=O)(=O)c4ccc(NCC5CCOCC5)c([N+](=O)[O-])c4)c(Oc4cnc5[nH]ccc5c4)c3)CC2)=C(c2ccc(C(F)(F)F)c(Cl)c2)C1 [Compound 4-1, 4-(4-{[2-(3-chloro-4-trifluoromethylphenyl)-4,4-dimethylcyclohex-1-enyl]methyl}-piperazin-1-yl)-N-({3-nitro-4-[(tetrahydro-2H-pyran-4-ylmethyl)amino]phenyl}sulfonyl)-2-(1H-pyrrolo[2,3-b]pyridin-5-yloxy)-benzamide] |
| 2.4 | – | 4.1 | CC1(C)CCC(CN2CCN(c3ccc(C(=O)NS(=O)(=O)c4ccc(NCCC5CN(S(C)(=O)=O)CCO5)c([N+](=O)[O-])c4)c(Oc4cnc5[nH]ccc5c4)c3)CC2)=C(c2ccc(C(F)(F)F)cc2Cl)C1 (centres unmarked) [Compound 21-1, 4-(4-{[2-(2-chloro-4-trifluoromethylphenyl)-4,4-dimethylcyclohex-1-enyl]methyl}-piperazin-1-yl)-N-({3-nitro-4-[(2-(4-(methylsulfonyl)morpholin-2-yl)ethyl)amino]phenyl}sulfonyl)-2-(1H-pyrrolo[2,3-b]pyridin-5-yloxy)-benzamide] |
| 5.11 | 556 | – | CCN1CCOCC1CNc1ccc(S(=O)(=O)NC(=O)c2ccc(N3CCN(CC4=C(c5ccc(C(F)(F)F)cc5Cl)CC(C)(C)CC4)CC3)cc2Oc2cnc3[nH]ccc3c2)cc1[N+](=O)[O-] (centres unmarked) [Compound 24-1, 4-(4-{[2-(2-chloro-4-trifluoromethylphenyl)-4,4-dimethylcyclohex-1-enyl]methyl}-piperazin-1-yl)-N-({3-nitro-4-[((4-ethylmorpholin-3-yl)methyl)amino]phenyl}sulfonyl)-2-(1H-pyrrolo[2,3-b]pyridin-5-yloxy)-benzamide] |
| 1.78 | 157 | – | CC1(C)CCC(CN2CCN(c3ccc(C(=O)NS(=O)(=O)c4ccc(NC[C@@H]5CCOC5)c([N+](=O)[O-])c4)c(Oc4cnc5[nH]ccc5c4)c3)CC2)=C(c2ccc(C(F)(F)F)cc2Cl)C1 [Compound 36-1, (S)-4-(4-{[2-(2-chloro-4-trifluoromethylphenyl)-4,4-dimethylcyclohex-1-enyl]methyl}-piperazin-1-yl)-N-({3-nitro-4-[((tetrahydrofuran-3-yl)methyl)amino]phenyl}sulfonyl)-2-(1H-pyrrolo[2,3-b]pyridin-5-yloxy)-benzamide] |
| 1.59 | 142 | – | CC1(C)CCC(CN2CCN(c3ccc(C(=O)NS(=O)(=O)c4ccc(NC[C@@H]5CCCO5)c([N+](=O)[O-])c4)c(Oc4cnc5[nH]ccc5c4)c3)CC2)=C(c2ccc(C(F)(F)F)cc2Cl)C1 [Compound 37-1, (S)-4-(4-{[2-(2-chloro-4-trifluoromethylphenyl)-4,4-dimethylcyclohex-1-enyl]methyl}-piperazin-1-yl)-N-({3-nitro-4-[((tetrahydrofuran-2-yl)methyl)amino]phenyl}sulfonyl)-2-(1H-pyrrolo[2,3-b]pyridin-5-yloxy)-benzamide] |
| 2.18 | 243 | – | CC1(C)CCC(CN2CCN(c3ccc(C(=O)NS(=O)(=O)c4ccc(NCCC5CCCOC5)c([N+](=O)[O-])c4)c(Oc4cnc5[nH]ccc5c4)c3)CC2)=C(c2ccc(C(F)(F)F)cc2Cl)C1 (centres unmarked) [Compound 45-1, 4-(4-{[2-(2-chloro-4-trifluoromethylphenyl)-4,4-dimethylcyclohex-1-enyl]methyl}-piperazin-1-yl)-N-({3-nitro-4-[((2-tetrahydropyran-3-yl)ethyl)amino]phenyl}sulfonyl)-2-(1H-pyrrolo[2,3-b]pyridin-5-yloxy)-benzamide] |
| 1.9 | – | 1.1 | CC1(C)CCC(CN2CCN(c3ccc(C(=O)NS(=O)(=O)c4ccc(NCC5CN(C(=O)CC#N)CCO5)c([N+](=O)[O-])c4)c(Oc4cnc5[nH]ccc5c4)c3)CC2)=C(c2ccc(C(F)(F)F)cc2Cl)C1 (centres unmarked) [Compound 51-1, 4-(4-{[2-(2-chloro-4-trifluoromethylphenyl)-4,4-dimethylcyclohex-1-enyl]methyl}-piperazin-1-yl)-N-({3-nitro-4-[((4-(2-cyanoacetyl)morpholin-2-yl)methyl)amino]phenyl}sulfonyl)-2-(1H-pyrrolo[2,3-b]pyridin-5-yloxy)-benzamide] |
| 1.1 | – | 1 | CN(C)CC(=O)N1CCC(CNc2ccc(S(=O)(=O)NC(=O)c3ccc(N4CCN(CC5=C(c6ccc(C(F)(F)F)cc6Cl)CC(C)(C)CC5)CC4)cc3Oc3cnc4[nH]ccc4c3)cc2[N+](=O)[O-])CC1 [Compound 59-1] |
| 1.1 | – | 1.3 | CN(C)CC(=O)N1CCCC(CNc2ccc(S(=O)(=O)NC(=O)c3ccc(N4CCN(CC5=C(c6ccc(C(F)(F)F)cc6Cl)CC(C)(C)CC5)CC4)cc3Oc3cnc4[nH]ccc4c3)cc2[N+](=O)[O-])C1 (centres unmarked) [Compound 60-1] |
| 1.52 | – | 3.2 | CC(=O)N1CCO[C@@H](CNc2ccc(S(=O)(=O)NC(=O)c3ccc(N4CCN(CC5=C(c6ccc(C(F)(F)F)cc6Cl)CC(C)(C)CC5)CC4)cc3Oc3cnc4[nH]ccc4c3)cc2[N+](=O)[O-])C1 [Compound 61-1, (S)-4-(4-{[2-(2-chloro-4-trifluoromethylphenyl)-4,4-dimethylcyclohex-1-enyl]methyl}-piperazin-1-yl)-N-({3-nitro-4-[((4-acetylmorpholin-2-yl)methyl)amino]phenyl}sulfonyl)-2-(1H-pyrrolo[2,3-b]pyridin-5-yloxy)-benzamide] |
| 2.32 | 122 | – | COCC(=O)N1CCOC(CCNc2ccc(S(=O)(=O)NC(=O)c3ccc(N4CCN(CC5=C(c6ccc(C(F)(F)F)cc6Cl)CC(C)(C)CC5)CC4)cc3Oc3cnc4[nH]ccc4c3)cc2[N+](=O)[O-])C1 (centres unmarked) [Compound 72-1, 4-(4-{[2-(2-chloro-4-trifluoromethylphenyl)-4,4-dimethylcyclohex-1-enyl]methyl}-piperazin-1-yl)-N-({3-nitro-4-[(2-(4-(2-methoxyacetyl)morpholin-2-yl)ethyl)amino]phenyl}sulfonyl)-2-(1H-pyrrolo[2,3-b]pyridin-5-yloxy)-benzamide] |

| Compound | IC50 (BCL-2/BAK) [nM] | IC50 (BCL-XL/BAK) [nM] | IC50 (RS4;11 cells) [nM] |
| --- | --- | --- | --- |
| 4-(4-{[2-(2-chloro-4-trifluoromethylphenyl)-4,4-dimethylcyclohex-1-enyl]methyl}-piperazin-1-yl)-N-({3-nitro-4-[(4-((trifluoromethyl) sulfonyl)morpholin-2-yl)methyl)amino]phenyl}sulfonyl)-2-(1H-pyrrolo[2,3-b]pyridin-5-yloxy)-benzamide [Compound 56-1] | 3.55 | 381 | – |
